From PubChem BioAssay AID1259411 (Chemical Carcinogenesis Research Information System (CCRIS), 2018)
Calls of active or inactive are those of the source. No rule for the calls is given here.

System: rodent carcinogenicity bioassays, tumor incidence
Experiment: CCRIS carcinogenicity studies
Details: Dose: 0, Dose: 0
How it was run: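 Archive of carcinogenicity, mutagenicity, tumor promotion and tumor inhibition results drawn from journals, NCI reports and other sources, expert-reviewed; covers 1985-2011 and is no longer updated.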

Structure (SMILES): C[C@H]1[C@H](c2ccc(Cl)cc2)SC(=O)N1C(=O)NC1CCCCC1
- carcinogen call (Species: Rat, Strain/Sex: Fischer 344/Female (70/Group), Route: Oral, 60, 430, 3000 ppm in diet for 24 mo, study duration 24 mo, 60, 430, 3000 ppm in diet for 24 mo, study duration 24 mo): inactive; negative
- carcinogen call (Species: Rat, Strain/Sex: Fischer 344/Male (70/Group), Route: Oral, 60, 430, 3000 ppm in diet for 24 mo, study duration 24 mo, 60, 430, 3000 ppm in diet for 24 mo, study duration 24 mo, Tumor Site: Type of Lesion: Mammary gland: fibroadenoma (0, 1, 2, 6)): active; positive. (department of pesticides regulation reviewer describes as possible ad

Structure (SMILES): O
- carcinogen call (Species: MOUSE, Strain/Sex: B6C3F1/FEMALE, Route: ORAL, 0.5, 2% IN DIET FOR 96 WK FOLLOWED BY CONTROL DIET FOR 8 WK (STUDY DURATION: 104 WK), 0.5, 2% IN DIET FOR 96 WK FOLLOWED BY CONTROL DIET FOR 8 WK (STUDY DURATION: 104 WK)): inactive; negative
- carcinogen call (Species: MOUSE, Strain/Sex: B6C3F1/FEMALE, Route: ORAL, 500, 1250, 2500 PPM IN DRINKING WATER (APPROXIMATELY 0; 40; 90; 200 MG/KG BW) FOR 104 WK (STUDY DURATION: 105 WK), 500, 1250, 2500 PPM IN DRINKING WATER (APPROXIMATELY 0; 40; 90; 200 MG/KG BW) FOR 104 WK (STUDY DURATION: 105 WK)): inactive; negative
- carcinogen call (Species: MOUSE, Strain/Sex: B6C3F1/MALE, Route: ORAL, 0.5, 2% IN DIET FOR 96 WK FOLLOWED BY CONTROL DIET FOR 8 WK (STUDY DURATION: 104 WK), 0.5, 2% IN DIET FOR 96 WK FOLLOWED BY CONTROL DIET FOR 8 WK (STUDY DURATION: 104 WK)): inactive; negative
- carcinogen call (Species: MOUSE, Strain/Sex: B6C3F1/MALE, Route: ORAL, 500, 1250, 2500 PPM IN DRINKING WATER (APPROXIMATELY 0; 30; 75; 160 MG/KG BW) FOR 103 WK (STUDY DURATION: 103 WK), 500, 1250, 2500 PPM IN DRINKING WATER (APPROXIMATELY 0; 30; 75; 160 MG/KG BW) FOR 103 WK (STUDY DURATION: 103 WK)): inactive; negative
- carcinogen call (Species: RAT, Strain/Sex: F344/FEMALE, Route: ORAL, 500, 1250, 2500 PPM IN DRINKING WATER (APPROXIMATELY 0; 15; 45; 75 MG/KG BW) FOR 105 WK (STUDY DURATION: 106 WK), 500, 1250, 2500 PPM IN DRINKING WATER (APPROXIMATELY 0; 15; 45; 75 MG/KG BW) FOR 105 WK (STUDY DURATION: 106 WK)): inactive; negative
- carcinogen call (Species: RAT, Strain/Sex: F344/MALE, Route: ORAL, 500, 1250, 2500 PPM IN DRINKING WATER (APPROXIMATELY 0; 15; 30; 60 MG/KG BW) FOR 104 WK (STUDY DURATION: 105 WK), 500, 1250, 2500 PPM IN DRINKING WATER (APPROXIMATELY 0; 15; 30; 60 MG/KG BW) FOR 104 WK (STUDY DURATION: 105 WK)): inactive; negative
- carcinogen call (Species: RAT, Strain/Sex: WISTAR/MALE, Route: INHALATION, 10 MG/M3 OF RESPIRABLE DUST 7 HR/D 5 D/WK FOR 224 DAYS DURING A PERIOD OF 12 MO (STUDY DURATION: 29 MO), Tumor Site: Type of Lesion: LUNG: ADENOMA OR CARCINOMA): active; positive
- carcinogen call (Species: RAT, Strain/Sex: WISTAR/MALE, Route: INTRAPERITONEAL, 25 MG OF DUST SUSPENDED IN 2 ML PHOSPHATE BUFFERED SALINE (STUDY DURATION: >418 D), Tumor Site: Type of Lesion: LUNG: MESOTHELIOMA): active; positive

Structure (SMILES): Nc1cc([N+](=O)[O-])ccc1C(=O)O
- carcinogen call (Species: MOUSE, Strain/Sex: B6C3F1/FEMALE, Route: ORAL, 0.46, 1.0% OF DIET, TWA, 0.46, 1.0% OF DIET, TWA): inactive; negative
- carcinogen call (Species: MOUSE, Strain/Sex: B6C3F1/MALE, Route: ORAL, 0.46, 1.0% OF DIET, TWA, 0.46, 1.0% OF DIET, TWA): inactive; negative
- carcinogen call (Species: RAT, Strain/Sex: F344/FEMALE, Route: ORAL, 0.46, 1.5% OF DIET, TWA, 0.46, 1.5% OF DIET, TWA): inactive; negative
- carcinogen call (Species: RAT, Strain/Sex: F344/MALE, Route: ORAL, 0.46, 1.5% OF DIET, TWA, 0.46, 1.5% OF DIET, TWA): inactive; negative
